Experiment [1] concerns the target Cannabinoid receptor 2 (Homo sapiens, UniProt P34972). Nature of the experiment: Binding affinity against human Cannabinoid receptor 2 by using radioligand ([3H]CP-55940) assay.
Experiment [2] deals with Cannabinoid receptor (Homo sapiens) (UniProt P34972+P21554). The experiment is described as follows: Ratio of binding affinity of hCB1 to hCB2 was reported. It counts as protein assay.
In experiment [3] the target is T1, Cannabinoid receptor 1 (Homo sapiens, UniProt P21554). Nature of the experiment: Binding affinity against human cannabinoid receptor by using radioligand ([3H]CP-55940) assay.
Experiment [4] addresses T1, Cannabinoid receptor 1. The experiment is described as follows: Compound was evaluated for binding affinity against human cannabinoid receptor by using radioligand ([3H]CP-55940) assay; second determination.
For experiment [5], the target named is T1, Cannabinoid receptor 1. Nature of the experiment: Compound was evaluated for binding affinity against human cannabinoid receptor by using radioligand ([3H]CP-55940) assay; first determination.

SMILES strings stand for the structures.

By Ki is commonly meant a dissociation constant, usually derived from enzyme kinetics or from competition with a known ligand. High values mean lower affinity, low ones higher affinity.

Sequence of Cannabinoid receptor 2 (P34972 whole entry): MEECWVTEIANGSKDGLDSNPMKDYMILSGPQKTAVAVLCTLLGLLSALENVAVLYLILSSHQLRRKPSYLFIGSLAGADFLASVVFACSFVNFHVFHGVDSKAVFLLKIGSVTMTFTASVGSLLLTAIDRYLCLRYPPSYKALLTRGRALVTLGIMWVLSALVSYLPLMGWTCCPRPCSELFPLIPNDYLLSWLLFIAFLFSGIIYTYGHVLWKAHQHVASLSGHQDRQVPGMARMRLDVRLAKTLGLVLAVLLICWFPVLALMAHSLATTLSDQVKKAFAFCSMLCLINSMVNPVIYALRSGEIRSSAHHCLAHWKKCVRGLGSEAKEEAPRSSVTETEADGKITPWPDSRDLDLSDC
Sequence of Cannabinoid receptor (Homo sapiens) (P21554 whole entry, looked up): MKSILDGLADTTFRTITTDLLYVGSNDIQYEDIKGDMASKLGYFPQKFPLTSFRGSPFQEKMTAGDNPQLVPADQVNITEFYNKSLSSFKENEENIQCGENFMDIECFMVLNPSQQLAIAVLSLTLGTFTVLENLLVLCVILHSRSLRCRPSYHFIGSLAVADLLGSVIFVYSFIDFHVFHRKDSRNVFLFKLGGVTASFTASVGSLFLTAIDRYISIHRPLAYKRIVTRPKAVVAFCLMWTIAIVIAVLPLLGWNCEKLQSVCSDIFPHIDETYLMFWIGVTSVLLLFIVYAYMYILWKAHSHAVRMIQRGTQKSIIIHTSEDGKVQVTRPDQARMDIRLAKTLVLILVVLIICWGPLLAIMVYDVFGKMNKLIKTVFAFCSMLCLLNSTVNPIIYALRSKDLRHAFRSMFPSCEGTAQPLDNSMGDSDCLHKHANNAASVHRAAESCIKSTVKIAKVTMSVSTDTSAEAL
Sequence of Cannabinoid receptor (Homo sapiens) (P34972 whole entry, looked up): as the sequence (P34972 whole entry) above
T1 sequence (P21554 whole entry): as the sequence (P21554 whole entry, looked up) above

Consider `CCCCCCC(C)(C)c1cc(OC)c2c(c1)OC(C)(C)[C@@H]1CC=C(C)C[C@@H]21`, for which the Ki in experiment [1] was found to be 20 nM; in experiment [3] it was 15800 nM. Moreover, the Ratio in experiment [2] was 793.
For the compound `CCCCCCC(C)(C)c1cc2c(c(OP(=O)(OCC)OCC)c1)[C@@H]1CC(C)=CC[C@H]1C(C)(C)O2`, the Ki in experiment [1] was 442 nM; in experiment [4] it was above 20 µM; in experiment [5], above 20 µM. The Ratio in experiment [2] is above 45.
Consider `CCCCCCC(C)(C)c1cc(O)c(-c2cc(C)cc(C)c2)c(O)c1`, for which the Ki amounted to 2 nM in experiment [1] and 79.1 nM in experiment [3]. For the same compound, in experiment [2], the Ratio is 40.
On to `CCCCCCC(C)(C)c1cc(OC)c(-c2cc(C)cc(C)c2)c(OC)c1`, for which the figures for the Ki in experiment [1] and in experiment [3] were 433 nM and above 20000 nM, respectively. Besides, the Ratio in experiment [2] was above 46.
As to `CCCCCCC(C)(C)c1cc(O)c2c(c1)OC(C)(C)[C@@H]1CC=C(C=O)C[C@@H]21`, the Ki in experiment [1] is 2.61 nM; in experiment [3] it was 2.24 nM. For the same compound, the Ratio in experiment [2] was 0.9.
`CCCCCCC(C)(C)c1cc(O)c2c(c1)OC(C)(C)[C@H]1CC=C(C)C[C@H]21`: the Ki in experiment [1] was found to be 28.8 nM; in experiment [3] it was 38.8 nM. The Ratio in experiment [2] amounted to 1.3.
Taken in the same sequence, the figures for `CCCCCCC(C)(C)c1cc(O)c2c(c1)OC(C)(C)[C@H]1CC=C(C=O)C[C@H]21` were 119 nM, 97 nM and 0.8.
As to `CCCCCCC(C)(C)c1ccc(-c2cc(C)cc(C)c2)c(O)c1`, the Ki came to 4.14 nM in experiment [1] and 12.5 nM in experiment [3]. In addition, the Ratio in experiment [2] came to 3.
Turning to `CCCCCCC(C)(C)c1ccc(-c2cc(C)cc(C)c2)cc1`, the Ki in experiment [1] was 2140 nM; in experiment [3], above 30000 nM. In experiment [2], the Ratio is above 14.
On to `C=C1CC[C@@H]2[C@@H](C1)c1c(O)cc(C(C)(C)CCCCCC)cc1OC2(C)C`, for which the figures for the Ki in experiment [1] and in experiment [3] were 0.58 nM and 1.82 nM, respectively. For the same compound, the Ratio in experiment [2] is 3.1.
In the case of `CCCCCCC(C)(C)c1cc(OC)c2c(c1)OC(C)(C)[C@@H]1CCC(=O)C[C@@H]21`, the results for the Ki in experiment [1] and in experiment [3] were 132 nM and 621 nM, respectively. Also, the Ratio in experiment [2] was 4.7.
As for `CCCCCCC(C)(C)c1cc(O)c([C@@H]2C=C(C)C3C[C@H]2C3(C)C)c(O)c1`, the Ki in experiment [1] is 41.2 nM; in experiment [3], 350 nM. The Ratio in experiment [2] worked out at 9.
With `C=C1CC[C@@H]2[C@@H](C1)c1c(OC)cc(C(C)(C)CCCCCC)cc1OC2(C)C`, the values for the Ki in experiment [1] and in experiment [3] were 19.4 nM and above 20000 nM, respectively. In experiment [2], the Ratio was above 1000.
On to `CCCCCCC(C)(C)c1cc(O)c2c(c1)OC(C)(C)[C@@H]1CCC(=O)C[C@@H]21` [NABILONE], for which the Ki in experiment [1] was found to be 1.84 nM; in experiment [3], 2.19 nM. The Ratio in experiment [2] worked out at 1.2.
As to `CCCCCCC(C)(C)c1cc(O)c2c(c1)OC(C)(C)[C@@H]1CC=C(C)C[C@@H]21`, the Ki came to 0.49 nM in experiment [1] and 0.83 nM in experiment [3]. Moreover, in experiment [2], the Ratio was found to be 1.7.
On to `CCCCCCC(C)(C)c1ccc2c(c1)OC(C)(C)[C@@H]1CC=C(C)C[C@@H]21`, for which the Ki was determined as 20.8 nM in experiment [1] and 250 nM in experiment [3]. For the same compound, the Ratio in experiment [2] is 12.

The values are drawn from ChEMBL document CHEMBL1129188, “Structure activity relationships of tetrahydrocannabinol analogues on human cannabinoid receptors” (Bioorg Med Chem Lett, 1996).
